Measured values from patent US6323240A, “4-phenyl-4-oxo-butanoic acid derivatives with kynurenine-3-hydroxylase inhibiting activity” (Pharmacia & Upjohn S.p.A., priority 1995, dated 2001).

Columns and labels:
kynurenine-3-hydroxylase [1] = biological target: T1, kynurenine-3-hydroxylase (Rattus norvegicus, UniProt O88867); assay: Kynurenine-3-hydroxylase assay in the rat brain (conversion of L-kynurenine to L-3-hydroxykynurenine, HPLC with coulometric detection); format: biochemical; conditions: rat brain homogenate; 50 μM L-kynurenine; pH 7.5; 60 min
T1 sequence (O88867 whole entry): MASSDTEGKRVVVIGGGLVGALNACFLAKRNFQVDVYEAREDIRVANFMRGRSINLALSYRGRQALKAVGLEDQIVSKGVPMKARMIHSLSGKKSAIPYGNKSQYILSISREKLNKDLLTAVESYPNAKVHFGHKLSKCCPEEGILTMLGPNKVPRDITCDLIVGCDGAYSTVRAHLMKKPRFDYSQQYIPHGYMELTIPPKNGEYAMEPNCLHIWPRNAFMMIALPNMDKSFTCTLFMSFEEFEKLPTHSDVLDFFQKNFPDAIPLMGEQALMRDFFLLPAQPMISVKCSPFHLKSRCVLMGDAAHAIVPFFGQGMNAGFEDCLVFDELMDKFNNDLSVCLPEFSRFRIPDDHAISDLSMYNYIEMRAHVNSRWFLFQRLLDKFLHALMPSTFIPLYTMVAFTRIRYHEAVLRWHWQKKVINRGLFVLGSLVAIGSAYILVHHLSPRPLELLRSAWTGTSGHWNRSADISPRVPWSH
Description: Kynurenine-3-hydroxylase Assay in the Rat Brain
Brain was homogenized in ice-cold 0.32 M sucrose and centrifuged at 12000×g for 30 min at 4° C. The pellet was washed three times with 0.32 M sucrose by centrifugation and suspended in 0.14 M KCl in 20 mM K-phosphate buffer at pH 7 (1 g tissue in 2 ml buffer).
The reaction mixture contained: 75 μl of suspended homogenate; 100 μl of substrate solution containing 50 mM K-phosphate buffer pH 7.5, 2 mM MgCl2, 0.4 mM NADPH, 50 μM L-kynurenine (final concentration), and 25 μl of different concentrations of inhibitor solutions. The reaction was stopped by addition of 200 μl of 1 M HClO4 after 60 min incubation. L-3-hydroxykynurenine formed was quantified by HPLC with coulometric detection at a working voltage of +0.2 V. The column was a 10 cm C18 reversed phase (3 μm. The mobile phase consisted of 950 ml distilled water, 20 ml acetonitrile, 9 ml triethylamine, 5.9 ml phosphoric acid, 100 mg sodium EDTA and 1.5 g heptanesulfonic acid. The flow rate was 1 ml/min.

kynurenine-3-hydroxylase [2] = biological target: T1, kynurenine-3-hydroxylase; assay: Kynurenine-3-hydroxylase assay in the rat liver (radiometric, tritiated water release, rat liver mitochondrial extract); format: biochemical; design: Rat liver mitochondrial extract was used as enzymatic preparation for this assay; from tissue; host or cells: rat liver mitochondrial extract; conditions: 0.025 mM L-kynurenine, pH 8.1, 37° C., 30 min
Description: Kynurenine-3-hydroxylase Assay in the Rat Liver
The assay for kynurenine 3-hydroxylase was based on the enzymatic synthesis of tritiated water during the hydroxylation reaction. Radiolabeled water was quantified following selective adsorption of the isotopic substrate and its metabolite with activated charcoal.
Rat liver mitochondrial extract was used as enzymatic preparation for this assay.
The assay for kynurenine 3-hydroxylase activity was carried out at 37° C. for a time of 30 min. The reaction mixture of a total volume of […] was constituted of […] of suspended extract, 100 mM Tris/Cl^- buffer pH 8.1, 10 mM EDTA, 100 mM Kcl, 0.8 mM NADPH, 0.025 mM L-kynurenine, […] L-(3,5-^3 H)Kynurenine (10 Ci/mmol) and […] of different concentration of inhibitor solutions. After the incubation the reaction was terminated by the addition of 1 mL of 7.5% (w/v) activated charcoal, vortexed and centrifugated for 7 min.
A […] aliquot of supernatant was counted by scintillation spectroscopy in 5 ml of liquid scintillation.

[3] = tested on: excitotoxic neuronal damage evoked by QUIN; conditions: co-injected with QUIN; cited from earlier work
CNS = conditions: cited from earlier work
[4] = tested on: ionotropic excitatory aminoacid receptors; conditions: preferentially acting at the glycine co-agonist site of the NMDA receptor; cited from earlier work
neuronal cell cultures = conditions: relatively low concentrations; prolonged period of time or in combination with glutamate; cited from earlier work
[5] = tested on: N-methyl-D-aspartate (NMDA) receptor; conditions: cited from earlier work

CC(CC(=O)c1ccc(F)c(F)c1)C(=O)O (racemic) [PNU 157952, (R,S)-2-methyl-4-(3',4'-difluorophenyl)-4-oxo-butanoic acid]
IC50 (kynurenine-3-hydroxylase [1]): 3.9 µM
IC50 (kynurenine-3-hydroxylase [2]): 55.1 µM

COC(CC(=O)c1ccc(F)c(F)c1)C(=O)O (racemic) [PNU 158380, (R,S)-2-methoxy-4-(3',4'-difluorophenyl)-4-oxo-butanoic acid]
IC50 (kynurenine-3-hydroxylase [1]): 12.6 µM
IC50 (kynurenine-3-hydroxylase [2]): 42.4 µM

O=C(CC(Cl)C(=O)O)c1ccc(Cl)c(Cl)c1 (racemic) [PNU 158781, (R,S)-2-chloro-4-(3',4'-dichlorophenyl)-4-oxo-butanoic acid]
IC50 (kynurenine-3-hydroxylase [2]): 13.3 µM

O=C(CC(O)C(=O)O)c1cccc(Cl)c1 (racemic) [PNU 158789, (R,S)-2-hydroxy-4-(3'-chlorophenyl)-4-oxo-butanoic acid]
IC50 (kynurenine-3-hydroxylase [1]): 0.45 µM
IC50 (kynurenine-3-hydroxylase [2]): 1.8 µM

COC(=O)C(O)CC(=O)c1ccc(Cl)c(Cl)c1 (racemic) [PNU 161211, Methyl(R,S)-2-hydroxy-4-(3',4'-dichlorophenyl)-4-oxo-butanoate]
IC50 (kynurenine-3-hydroxylase [1]): 3.1 µM
IC50 (kynurenine-3-hydroxylase [2]): 5.6 µM

CC(CC(=O)O)C(=O)c1ccc(Cl)c(Cl)c1 (racemic) [PNU 161243, (R,S)-3-methyl-4-(3',4'-dichlorophenyl)-4-oxo-butanoic acid]
IC50 (kynurenine-3-hydroxylase [1]): 14.3 µM

COC(=O)C(CC(=O)c1ccc(Cl)c(Cl)c1)Cc1ccccc1 (racemic) [PNU 167531, (R,S)-Methyl-2-benzyl-4-(3',4'-dichlorophenyl)-4-oxo-butanoate]
IC50 (kynurenine-3-hydroxylase [2]): 1.9 µM

O=C(O)CC(C(=O)c1ccc(Cl)c(Cl)c1)c1ccccc1 (racemic) [PNU 167541, (R,S)-3-phenyl-4-(3',4'-dichlorophenyl)-4-oxo-butanoic acid]
IC50 (kynurenine-3-hydroxylase [2]): 55 µM

O=C(O)c1cc(=O)c2ccccc2[nH]1 [KYNA, kynurenic acid]
prevention of QUIN-evoked excitotoxic neuronal damage [3]: able to prevent the excitotoxic neuronal damage
action when injected in the CNS (CNS): neuroprotective agent
antagonism of the ionotropic excitatory aminoacid receptors [4]: broad spectrum antagonist

O=C(O)CCC(=O)c1ccc(Cl)c(Cl)c1 [PNU 156588, 4-(3',4'-dichlorophenyl)-4-oxo-butanoic acid]
IC50 (kynurenine-3-hydroxylase [1]): 0.9 µM
IC50 (kynurenine-3-hydroxylase [2]): 3.9 µM

O=C(O)CCC(=O)c1ccc(F)c(F)c1 [PNU 157720, 4-(3',4'-difluorophenyl)-4-oxo-butanoic acid]
IC50 (kynurenine-3-hydroxylase [1]): 3.7 µM
IC50 (kynurenine-3-hydroxylase [2]): 18.3 µM

COC(=O)CCC(=O)c1ccc(Cl)c(Cl)c1 [PNU 158381, Methyl 4-(3',4'-dichlorophenyl)-4-oxo-butanoate]
IC50 (kynurenine-3-hydroxylase [2]): 5.7 µM

C=C(CC(=O)c1ccc(Cl)c(Cl)c1)C(=O)O [PNU 158432, 2-methyliden-4-(3',4'-dichlorophenyl)-4-oxo-butanoic acid]
IC50 (kynurenine-3-hydroxylase [2]): 36 µM

O=C(O)C(O)C(Cc1ccccc1)C(=O)c1ccc(Cl)c(Cl)c1 (centres unmarked) [PNU 167536, 2-hydroxy-3-benzyl-4-(3',4'-dichlorophenyl)-4-oxo-butanoic acid]
IC50 (kynurenine-3-hydroxylase [2]): 61.6 µM

O=C(O)c1cccnc1C(=O)O [QUIN, quinolinic acid]
neurotoxicity in neuronal cell cultures (neuronal cell cultures): neurotoxic
in vivo lesions and convulsions (CNS; in vivo): convulsions and axon sparing lesions
action when injected in the CNS (CNS): neurotoxin
agonism at the NMDA receptor [5]: highly selective agonist
